Test results published in patent US8173689B2 (Novartis AG, priority 2006, dated 2012).
Read-outs that look alike come from different tables or passages of the source. Values belong to the compound of their own block, whether it stands above or below them.

Columns and labels:
kinase domain of cKIT = target: T1, kinase domain of cKIT (Homo sapiens, UniProt P10721); experiment: Inhibition of cKIT kinase signaling in an in vitro biochemical assay (alphascreen); settings: tested at about 1 μM, read-out: cKit percent inhibition
T1 construct: The kinase domain of cKIT was assayed in 50 mM Hepes; purchased Upstate 14-559

[1] = target: T2, full-length human CSF-1R receptor (Homo sapiens, UniProt P07333); experiment: In vitro inhibition of CSF-1R receptor tyrosine phosphorylation in transfected HEK293H cells stimulated with MCSF; type: cell-based; settings: HEK293-H, tested at about 1 μM, read-out: pCSF1R percent inhibition
T2 construct: transfected with the full-length human CSF-1R receptor cloned in house; expressed in transfected cells; host or cells: HEK293H (Invitrogen Cat. #11631017)
Method: The lysate was then transferred to total CSF-1R antibody coated 96-well plates that had already been blocked with 3% Blocker A from Mesoscale discovery (MSD) for 2 hours and washed afterwards. Lysates were incubated overnight at 4° C. and the plates were then washed 4× with MSD Tris Wash Buffer. […] The plates were read on the Sector 6000 instrument (MSD). Raw data was imported in Abase and EC50s calculated with XL-fit data analysis software.

[2] = target: T3, cytoplasmic domain of the human CSF-1R (Homo sapiens, UniProt P07333); experiment: In vitro kinase assay for colony stimulating factor-1 receptor (AlphaScreen); type: biochemical; settings: tested at about 1 μM, read-out: CSF-1R percent inhibition
T3 construct: Recombinant protein corresponding to the cytoplasmic domain of the human CSF-1R; purchased Invitrogen Corporation, Carlsbad, Calif; PV3249
T3 sequence (P07333 539-972 limits assumed): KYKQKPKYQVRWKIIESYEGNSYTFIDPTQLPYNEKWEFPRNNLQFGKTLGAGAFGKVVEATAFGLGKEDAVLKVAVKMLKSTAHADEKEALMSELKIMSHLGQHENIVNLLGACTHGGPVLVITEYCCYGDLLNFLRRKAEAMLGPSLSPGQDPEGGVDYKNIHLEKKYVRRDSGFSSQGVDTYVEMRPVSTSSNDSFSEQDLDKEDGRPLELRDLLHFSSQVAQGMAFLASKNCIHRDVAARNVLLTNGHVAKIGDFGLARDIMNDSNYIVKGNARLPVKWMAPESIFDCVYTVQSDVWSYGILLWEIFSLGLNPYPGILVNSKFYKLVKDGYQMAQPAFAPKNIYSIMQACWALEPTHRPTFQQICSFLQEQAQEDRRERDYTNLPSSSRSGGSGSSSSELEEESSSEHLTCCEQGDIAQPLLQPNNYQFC
Outline: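 Kinase reaction used 4 nM recombinant cytoplasmic domain at 1 μM ATP in 50 mM Hepes pH 7.5 with 5 mM MgCl2, 10 mM MnCl2, 0.1% BSA, 1.0 mM DTT and 0.01% Tween 80. Compounds were serially diluted 3-fold from 25 μM. Phosphopeptide was detected by AlphaScreen, PT66 anti-phosphotyrosine acceptor plus streptavidin donor beads, read after overnight incubation.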

kinase domain of PDGFRβ = target: T4, kinase domain of PDGFRβ (Homo sapiens, UniProt P09619); experiment: Inhibition of PDGFRb kinase signaling in an in vitro biochemical assay (alphascreen); settings: tested at about 1 μM, read-out: PDGFRβ percent inhibition
T4 construct: The kinase domain of PDGFRβ was assayed in 50 mM Hepes; purchased Invitrogen P3082

[3] = test system: MNFS60 (murine AML cells); experiment: Cell viability assay in MCSF dependent MNFS60 cells (Cell Titer Glo); type: cell-based; settings: Mus musculus, tested at about 1 μM, read-out: M-NFS-60 CP percent inhibition
Outline: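 Cells are cultured with 10 ng/ml MCSF and test compound for 72 hrs at 37° C. in 5% CO2. CellTiter-Glo reagent is then added to gauge viable cell number, and EC50s are fitted from triplicates.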

T4 sequence (P09619 600-962 limits assumed): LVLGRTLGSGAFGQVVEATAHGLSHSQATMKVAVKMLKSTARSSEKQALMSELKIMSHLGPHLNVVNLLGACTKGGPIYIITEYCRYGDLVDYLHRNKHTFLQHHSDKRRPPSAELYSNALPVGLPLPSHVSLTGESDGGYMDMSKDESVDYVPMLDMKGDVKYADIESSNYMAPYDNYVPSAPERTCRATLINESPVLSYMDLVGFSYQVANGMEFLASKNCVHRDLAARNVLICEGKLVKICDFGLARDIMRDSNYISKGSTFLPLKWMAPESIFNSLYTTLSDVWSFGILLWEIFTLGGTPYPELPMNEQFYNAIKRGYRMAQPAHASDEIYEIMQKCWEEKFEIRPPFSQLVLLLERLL
T1 sequence (P10721 589-937 limits assumed): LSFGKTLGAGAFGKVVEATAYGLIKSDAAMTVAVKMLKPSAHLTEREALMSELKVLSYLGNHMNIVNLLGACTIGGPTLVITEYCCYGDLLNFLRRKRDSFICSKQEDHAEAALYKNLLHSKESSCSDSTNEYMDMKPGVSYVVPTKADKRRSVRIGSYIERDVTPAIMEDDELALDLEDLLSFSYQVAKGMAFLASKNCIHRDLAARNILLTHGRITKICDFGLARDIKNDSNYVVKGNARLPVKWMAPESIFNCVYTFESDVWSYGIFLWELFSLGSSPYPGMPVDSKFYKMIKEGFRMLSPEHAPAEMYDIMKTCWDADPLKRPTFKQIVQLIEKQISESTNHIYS
T2 sequence (P07333 20-972): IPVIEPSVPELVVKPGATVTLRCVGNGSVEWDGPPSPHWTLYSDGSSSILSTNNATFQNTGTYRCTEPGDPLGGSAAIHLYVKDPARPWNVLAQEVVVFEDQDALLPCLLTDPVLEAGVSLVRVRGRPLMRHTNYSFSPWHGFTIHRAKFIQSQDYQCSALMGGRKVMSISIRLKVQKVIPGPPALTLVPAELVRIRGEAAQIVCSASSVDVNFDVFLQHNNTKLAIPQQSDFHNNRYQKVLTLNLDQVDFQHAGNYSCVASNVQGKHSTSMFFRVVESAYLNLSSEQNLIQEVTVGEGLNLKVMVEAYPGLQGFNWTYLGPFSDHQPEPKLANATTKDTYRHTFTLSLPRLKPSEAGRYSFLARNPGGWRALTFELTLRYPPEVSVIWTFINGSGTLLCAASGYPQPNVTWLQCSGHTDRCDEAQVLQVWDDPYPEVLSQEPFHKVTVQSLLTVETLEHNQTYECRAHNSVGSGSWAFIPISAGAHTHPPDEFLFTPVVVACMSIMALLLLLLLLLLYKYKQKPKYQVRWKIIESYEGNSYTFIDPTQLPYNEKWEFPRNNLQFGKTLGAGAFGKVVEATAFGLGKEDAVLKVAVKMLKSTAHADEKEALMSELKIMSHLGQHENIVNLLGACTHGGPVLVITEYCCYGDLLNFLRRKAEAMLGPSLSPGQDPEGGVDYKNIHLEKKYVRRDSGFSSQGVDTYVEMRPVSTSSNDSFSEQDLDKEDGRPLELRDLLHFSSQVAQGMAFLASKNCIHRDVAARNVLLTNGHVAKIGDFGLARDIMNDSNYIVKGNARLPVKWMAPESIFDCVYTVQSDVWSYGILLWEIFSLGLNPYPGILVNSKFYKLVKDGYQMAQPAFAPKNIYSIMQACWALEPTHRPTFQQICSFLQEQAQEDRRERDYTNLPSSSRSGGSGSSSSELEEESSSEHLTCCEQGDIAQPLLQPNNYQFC

SMILES: CNC(=O)c1cc(Oc2ccc3nc(N[C@H](C)c4ccccc4)sc3c2)ccn1 [Compound 131, 4-[2-((R)-1-Phenyl-ethylamino)-benzothiazol-6-yloxy]-pyridine-2-carboxylic acid methylamide]
- inhibition at 1 µM (kinase domain of cKIT): 96%
- inhibition at 1 µM ([1]; HEK293H cells): 98%
- inhibition at 1 µM [2]: 99%
- inhibition at 1 µM (kinase domain of PDGFRβ): 55%
- inhibition at 1 µM ([3]; MNFS60 cells): 100%

SMILES: C[C@H](Nc1nc2ccc(Oc3ccnc(-c4ccc(N)nc4)c3)cc2s1)C1CCCCC1 [Example 276, (S)-6-(6'-amino-2,3'-bipyridin-4-yloxy)-N-(1-cyclohexylethyl)benzo[d] thiazol-2-amine]
- inhibition at 1 µM (kinase domain of cKIT; compounds of Table 3): 39%
- inhibition at 1 µM ([1]; compounds of Table 3): 97%
- inhibition at 1 µM ([2]; compounds of Table 3): 100%
- inhibition at 1 µM (kinase domain of PDGFRβ; compounds of Table 3): 26%
- inhibition at 1 µM ([3]; compounds of Table 3): 100%

SMILES: CNC(=O)c1cc(Oc2ccc3nc(NC4CCCCC4)sc3c2)ccn1 [Compound 135, 4-(2-Cyclohexylamino-benzothiazol-6-yloxy)-pyridine-2-carboxylic acid methylamide]
- inhibition at 1 µM (kinase domain of cKIT): 68%
- inhibition at 1 µM ([1]; HEK293H cells): 91%
- inhibition at 1 µM [2]: 100%
- inhibition at 1 µM (kinase domain of PDGFRβ): 20%
- inhibition at 1 µM ([3]; MNFS60 cells): 96%

SMILES: Cc1c[nH]c(-c2cc(Oc3ccc4nc(N[C@@H](C)C5CCCCC5)sc4c3)ccn2)n1 [Example 268, (S)-N-(1-cyclohexylethyl)-6-(2-(4-methyl-1H-imidazol-2-yl)pyridin-4-yloxy)benzo[d]thiazol-2-amine]
- inhibition at 1 µM (kinase domain of cKIT; compounds of Table 3): 25%
- inhibition at 1 µM ([1]; compounds of Table 3): 87%
- inhibition at 1 µM ([2]; compounds of Table 3): 100%
- inhibition at 1 µM (kinase domain of PDGFRβ; compounds of Table 3): 29%
- inhibition at 1 µM ([3]; compounds of Table 3): 84%

SMILES: CNC(=O)c1cc(Oc2ccc3nc(NCc4cccc5c4OCCO5)oc3c2)ccn1 [Compound 65, 4-{2-[(2,3-Dihydro-benzo-[1,4]dioxin-5-ylmethyl)-amino]-benzooxazol-6-yloxy}-pyridine-2-carboxylic acid methylamide]
- inhibition at 1 µM (kinase domain of cKIT): 98%
- inhibition at 1 µM ([1]; HEK293H cells): 97%
- inhibition at 1 µM [2]: 99%
- inhibition at 1 µM (kinase domain of PDGFRβ): 38%
- inhibition at 1 µM ([3]; MNFS60 cells): 100%

SMILES: CNC(=O)c1cc(Oc2ccc3nc(NCCc4ccccc4)sc3c2)ccn1 [Compound 133, 4-(2-Phenethylamino-benzo-thiazol-6-yloxy)-pyridine-2-carboxylic acid methylamide]
- inhibition at 1 µM (kinase domain of cKIT): 53%
- inhibition at 1 µM ([1]; HEK293H cells): 92%
- inhibition at 1 µM [2]: 99%
- inhibition at 1 µM (kinase domain of PDGFRβ): 3%
- inhibition at 1 µM ([3]; MNFS60 cells): 45%

SMILES: CNC(=O)c1cc(Oc2ccc3nc(NCc4c(F)cccc4F)sc3c2)ccn1 [Compound 149, 4-[2-(2,6-Difluoro-benzylamino)-benzothiazol-6-yloxy]-pyridine-2-carboxylic acid methylamide]
- inhibition at 1 µM (kinase domain of cKIT): 4%
- inhibition at 1 µM ([1]; HEK293H cells): 92%
- inhibition at 1 µM [2]: 99%
- inhibition at 1 µM (kinase domain of PDGFRβ): 0%
- inhibition at 1 µM ([3]; MNFS60 cells): 67%

SMILES: CC(C)Cn1cc(-c2cc(Oc3ccc4nc(N[C@@H]5CCCC[C@H]5O)sc4c3)ccn2)cn1 [Example 359, (1R,2R)-2-(6-(2-(1-isobutyl-1H-pyrazol-4-yl)pyridin-4-yloxy)benzo[d]thiazol-2-ylamino)cyclohexanol]
- inhibition at 1 µM (kinase domain of cKIT): 31%
- inhibition at 1 µM ([1]; HEK293H cells): 93%
- inhibition at 1 µM [2]: 100%
- inhibition at 1 µM (kinase domain of PDGFRβ): 19%
- inhibition at 1 µM ([3]; MCSF dependent MNFS60 cells): 95%

SMILES: Nc1ccc(-c2cc(Oc3ccc4nc(N[C@@H]5CCCC[C@H]5O)sc4c3)ccn2)cn1 [Example 261, (1R,2R)-2-(6-(6'-amino-2,3'-bipyridin-4-yloxy)benzo[d]thiazol-2-ylamino)cyclohexanol]
- inhibition at 1 µM (kinase domain of cKIT; compounds of Table 3): 25%
- inhibition at 1 µM ([1]; compounds of Table 3): 98%
- inhibition at 1 µM ([2]; compounds of Table 3): 100%
- inhibition at 1 µM (kinase domain of PDGFRβ; compounds of Table 3): 30%
- inhibition at 1 µM ([3]; compounds of Table 3): 100%

SMILES: CNC(=O)c1cc(Oc2ccc3nc(N[C@H](C)c4ccccc4OC)sc3c2)ccn1 [Compound 129, 4-{2-[(R)-1-(2-Methoxy-phenyl)-ethylamino]-benzothiazol-6-yloxy}-pyridine-2-carboxylic acid methylamide]
- inhibition at 1 µM (kinase domain of cKIT): 92%
- inhibition at 1 µM ([1]; HEK293H cells): 92%
- inhibition at 1 µM [2]: 99%
- inhibition at 1 µM (kinase domain of PDGFRβ): 34%
- inhibition at 1 µM ([3]; MNFS60 cells): 94%

The next lines start with results.

- inhibition at 1 µM (kinase domain of cKIT; compounds of Table 3): 6%
- inhibition at 1 µM ([1]; compounds of Table 3): 65%
- inhibition at 1 µM ([2]; compounds of Table 3): 100%
- inhibition at 1 µM (kinase domain of PDGFRβ; compounds of Table 3): 14%
SMILES: O[C@@H]1CCCC[C@H]1Nc1nc2ccc(Oc3ccnc4cc(OC(F)(F)F)ccc34)cc2s1 [Example 230, (1R,2R)-2-(6-(7-(trifluoromethoxy)quinolin-4-yloxy)benzo[d]thiazol-2-ylamino)cyclohexanol]
- inhibition at 1 µM ([3]; compounds of Table 3): 58%

- inhibition at 1 µM (kinase domain of cKIT): 5%
- inhibition at 1 µM ([1]; HEK293H cells): 86%
- inhibition at 1 µM [2]: 99%
- inhibition at 1 µM (kinase domain of PDGFRβ): 3%
SMILES: CNC(=O)c1cc(Oc2ccc3nc(NCc4cc(OC)ccc4OC)sc3c2)ccn1 [Compound 146, 4-[2-(2,5-Dimethoxy-benzyl-amino)-benzothiazol-6-yloxy]-pyridine-2-carboxylic acid methylamide]
- inhibition at 1 µM ([3]; MNFS60 cells): 56%

- inhibition at 1 µM (kinase domain of cKIT): 18%
- inhibition at 1 µM ([1]; HEK293H cells): 63%
- inhibition at 1 µM [2]: 99%
- inhibition at 1 µM (kinase domain of PDGFRβ): 10%
SMILES: CNC(=O)c1cc(Oc2ccc3nc(NC4CCCc5ccccc54)oc3c2)ccn1 (stereo not drawn) [Compound 104, 4-[2-(1,2,3,4-Tetrahydro-naphthalen-1-ylamino)-benzooxazol-6-yloxy]-pyridine-2-carboxylic acid methylamide]
- inhibition at 1 µM ([3]; MNFS60 cells): 47%

- inhibition at 1 µM (kinase domain of cKIT): 99%
- inhibition at 1 µM ([1]; HEK293H cells): 98%
- inhibition at 1 µM [2]: 99%
- inhibition at 1 µM (kinase domain of PDGFRβ): 100%
SMILES: CNC(=O)c1cc(Oc2ccc3nc(NCC4CCCCCC4)sc3c2)ccn1 [Compound 148, 4-[2-(Cycloheptylmethyl-amino)-benzothiazol-6-yloxy]-pyridine-2-carboxylic acid methylamide]
- inhibition at 1 µM ([3]; MNFS60 cells): 100%

- inhibition at 1 µM (kinase domain of cKIT; compounds of Table 3): 48%
- inhibition at 1 µM ([1]; compounds of Table 3): 91%
- inhibition at 1 µM ([2]; compounds of Table 3): 100%
- inhibition at 1 µM (kinase domain of PDGFRβ; compounds of Table 3): 65%
SMILES: N#Cc1ccc2nccc(Oc3ccc4nc(N[C@@H]5CCCC[C@H]5O)sc4c3)c2c1 [Example 220, 4-(2-((1R,2R)-2-hydroxycyclohexylamino)benzo[d]thiazol-6-yloxy)quinolin-6-carbonitrile]
- inhibition at 1 µM ([3]; compounds of Table 3): 84%

- inhibition at 1 µM (kinase domain of cKIT; compounds of Table 4): 11%
- inhibition at 1 µM ([1]; compounds of Table 4): 95%
- inhibition at 1 µM ([2]; compounds of Table 4): 100%
- inhibition at 1 µM (kinase domain of PDGFRβ; compounds of Table 4): 0%
SMILES: COCCn1cc(-c2cc(Oc3ccc4nc(N[C@@H]5c6ccccc6C[C@@H]5O)sc4c3)ccn2)cn1 [Compound 58]
- inhibition at 1 µM ([3]; compounds of Table 4): 100%

- inhibition at 1 µM (kinase domain of cKIT): 92%
- inhibition at 1 µM ([1]; HEK293H cells): 90%
- inhibition at 1 µM [2]: 100%
- inhibition at 1 µM (kinase domain of PDGFRβ): 0%
SMILES: CNC(=O)c1cc(Oc2ccc3nc(NCc4ccccc4F)sc3c2)ccn1 [Compound 140, 4-[2-(2-Fluoro-benzylamino)-benzothiazol-6-yloxy]-pyridine-2-carboxylic acid methylamide]
- inhibition at 1 µM ([3]; MNFS60 cells): 52%

- inhibition at 1 µM (kinase domain of cKIT): 98%
- inhibition at 1 µM ([1]; HEK293H cells): 88%
- inhibition at 1 µM [2]: 99%
- inhibition at 1 µM (kinase domain of PDGFRβ): 97%
SMILES: CNC(=O)c1cc(Oc2ccc3nc(NCc4ccccc4N4CCOCC4)sc3c2)ccn1 [Compound 142, 4-[2-(2-Morpholin-4-yl-benzylamino)-benzothiazol-6-yloxy]-2-pyridine-2-carboxylic acid methylamide]
- inhibition at 1 µM ([3]; MNFS60 cells): 100%
